# Read-outs that look alike come from different tables or passages of the source.
# Legend:
# Cultured rat SCG neurons = conditions: for effect on proNGF induced neuronal apoptosis (FIG. 1): 10 μM compound, 5 ng/ml proNGF, rat SCG neurons 7 DIV
# Procedure: (§1) (A) Neuronal apoptosis was assessed morphologically by DAPI and TuJ1 double staining and (B) quantitated as percentage of SCG neuron apoptosis. […] Error bars represent S.E.M.
# as §1, with “A recent collaborative study assessed the expression and biological actions of proNGF following seizure induced injury to central neurons. […] (A)” for “(A)”
# [1] = rat, in vivo, sc, 100 mg/kg
# [2] = human, in vivo, cited from earlier work
# [3] = mouse, in vivo; cited from earlier work
# [4] = in vivo; cited from earlier work
# [5] = monkey, in vivo; cited from earlier work
# [6] = cited from earlier work
# [7] = human, in vivo; cited from earlier work
# dopaminergic neurons = conditions: one report; cited from earlier work
compound,measurement,setting,value
O=C([O-])[O-].[Li+].[Li+] [Lithium carbonate],concentration at which efficacy is demonstrated,Cultured rat SCG neurons,10 µM
same,peak serum concentration,[1],3 mM
same,trough serum concentration,[1],300 µM
same,serum concentration,[2]; po,0.6 to 0.8 mmol
same,major toxicities,[2],reversible renal impairment and anemia
same,clinical toxicity,[3],no clinical toxicity
same,brain concentration relative to serum concentration,[4],approximately half
same,brain concentration relative to serum concentration,[5],approximately half
CC[C@H](C)C(=O)O[C@H]1C[C@@H](C)C=C2C=C[C@H](C)[C@H](CC[C@@H]3C[C@@H](O)CC(=O)O3)[C@H]21 [Lovastatin],"inhibition of apoptosis, dose dependence",Cultured rat SCG neurons,dose dependent inhibition of apoptosis
same,toxicity in SCG neuron assay,Cultured rat SCG neurons,without toxicity
same,toxicity profile in human,[6]; in vivo,excellent toxicity profiles in human
O=C([O-])CC(O)(CC(=O)[O-])C(=O)[O-].[Li+].[Li+].[Li+] [Lithium Citrate],"inhibition of apoptosis, dose dependence",Cultured rat SCG neurons,dose dependent inhibition of apoptosis
same,effect on proNGF induced neuronal apoptosis (FIG. 1),Cultured rat SCG neurons,blockade of proNGF induced neuronal apoptosis
same,toxicity profile in human,[6]; in vivo,excellent toxicity profiles in human
N[C@@H](Cc1ccc(O)c(O)c1)C(=O)O [Levodopa],effect on proNGF induced neuronal apoptosis (FIG. 1),Cultured rat SCG neurons,blockade of proNGF induced neuronal apoptosis
same,"inhibition of apoptosis, dose dependence",Cultured rat SCG neurons; proNGF-induced SCG neuronal cell death,dose dependent inhibition of apoptosis
same,toxicity profile in human,[6]; human,excellent toxicity profiles in human
same,CSF level of major metabolite homovanillic acid,[7],0.8 to 1 µM
same,L-dopa concentrations required for toxicity to dopaminergic neurons,dopaminergic neurons,100 to 500 µM

# — patent US20110189310A1, “SMALL MOLECULE MODULATORS OF PRONGF UPTAKE” (priority 2008, published 2011)
